Experimental data reported in patent publication US7026313B2, “2-thia-1,6,8-triaza-naphthalene-2,2-dioxides are kinase inhibitors” (Warner-Lambert Company, priority 2002, dated 2006).

Experiments:
[1] = system: herpes simplex virus (HSV); conditions: related art (Schang et al.); cited from earlier work
cdk2/cyclin A = cdk2/cyclin A (Homo sapiens, UniProt P24941); assay: Assay for inhibition of cdk2 (cdk2/cyclin A), 32P filter plate; type: biochemical; conditions: retinoblastoma protein substrate, read-out: CYCK2A IC50
Experimental: (§1) Assay for Inhibition of cdk1 and cdk2
(§2) Cdk1 and cdk2 enzyme assays for IC50 determinations and kinetic evaluation were performed as follows. 96-well filter plates (Millipore MADVN6550) were used. The total volume of each well in the assay was 0.1 mL in Buffer A (20 mM TRIS (pH 7.4), 50 mM NaCl, 1 mM dithiothreitol, 10 mM MgCl2), to which was added […] containing 0.25 μCi [^32P]ATP, 20 ng enzyme (cdk2/cyclin E, cdk2/cyclin A, or cdk1/cyclin B), 1 μg retinoblastoma protein, and appropriate dilutions in Buffer A of the particular test compound. Buffer A alone without added test compound was employed as a control for no inhibition. Buffer A containing excess EDTA was used to determine the level of background ^32P in the absence of enzyme activity. All components except the ATP were added to the wells, and the plate was placed on a plate mixer for 2 minutes. The reaction was initiated by addition of [^32P]ATP, and the plate was incubated at 25° C. for 15 minutes. The reaction was terminated by addition of 0.1 mL 20% TCA. The plate was kept at 4° C. for at least 1 hour to allow the substrate to precipitate. The wells were then washed five times with 0.2 mL 10% TCA, and ^32P incorporation was determined with a beta plate counter (Wallac Inc., Gaithersburg, Md.). The IC50 of the test compound was determined using the median effect method (Chou, T-C and Talalay, P. Applications of the median effect principle for the assessment of low-dose risk of carcinogens and for the quantitation of synergism and antagonism of chemotherapeutic agents. In: New Avenues in Developmental Cancer Chemotherapy (Eds. Harrap, K. T. and Connors, T. A.), pp. 37–64. Academic Press, New York, 1987).

cdk1/cyclin B = cdk1/cyclin B (Homo sapiens, UniProt P06493); assay: Assay for inhibition of cdk1 (cdk1/cyclin B), 32P filter plate; type: biochemical; conditions: retinoblastoma protein substrate, read-out: CYCK1B IC50
Chain of cdk1/cyclin B (P06493 whole entry, species assumed): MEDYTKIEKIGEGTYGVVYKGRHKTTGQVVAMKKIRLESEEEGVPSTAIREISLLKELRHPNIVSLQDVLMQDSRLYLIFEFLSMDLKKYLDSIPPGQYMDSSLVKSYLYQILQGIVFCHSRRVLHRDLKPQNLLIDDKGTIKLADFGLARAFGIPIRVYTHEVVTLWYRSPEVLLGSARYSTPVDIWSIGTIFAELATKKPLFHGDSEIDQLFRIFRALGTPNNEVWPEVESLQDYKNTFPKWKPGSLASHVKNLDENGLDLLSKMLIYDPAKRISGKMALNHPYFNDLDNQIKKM
Chain of cdk1/cyclin B (P14635 whole entry partner, species assumed): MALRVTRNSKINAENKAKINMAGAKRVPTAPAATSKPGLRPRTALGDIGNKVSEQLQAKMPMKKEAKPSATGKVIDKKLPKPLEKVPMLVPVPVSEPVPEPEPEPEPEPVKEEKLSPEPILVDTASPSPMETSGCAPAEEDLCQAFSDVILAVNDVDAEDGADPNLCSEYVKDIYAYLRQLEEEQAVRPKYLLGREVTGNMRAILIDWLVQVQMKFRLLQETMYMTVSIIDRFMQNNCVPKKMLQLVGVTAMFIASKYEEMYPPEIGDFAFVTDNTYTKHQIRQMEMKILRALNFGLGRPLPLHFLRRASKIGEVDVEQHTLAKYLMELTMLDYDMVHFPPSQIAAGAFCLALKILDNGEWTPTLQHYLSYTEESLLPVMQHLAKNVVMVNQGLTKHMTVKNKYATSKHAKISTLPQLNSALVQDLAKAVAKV
Experimental: as §1, §2

cdk4/Cyclin D = cdk4/Cyclin D (Homo sapiens, UniProt P11802); assay: Assay for inhibition of cdk4/Cyclin D, 32P filter plate; type: biochemical; conditions: for IC50: cdk4, 25 μM ATP, retinoblastoma protein substrate, read-out: CYCK4 IC50
Chain of cdk4/Cyclin D (P11802 whole entry, species assumed): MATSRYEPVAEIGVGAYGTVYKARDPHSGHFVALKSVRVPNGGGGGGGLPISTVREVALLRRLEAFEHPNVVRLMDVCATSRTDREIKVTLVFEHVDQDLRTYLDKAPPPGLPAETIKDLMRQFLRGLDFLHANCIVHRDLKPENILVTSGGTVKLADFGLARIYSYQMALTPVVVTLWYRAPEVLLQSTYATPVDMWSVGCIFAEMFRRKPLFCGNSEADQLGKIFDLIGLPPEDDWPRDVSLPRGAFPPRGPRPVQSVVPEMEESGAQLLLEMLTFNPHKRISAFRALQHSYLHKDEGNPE
Chain of cdk4/Cyclin D (P24385 whole entry partner, species assumed): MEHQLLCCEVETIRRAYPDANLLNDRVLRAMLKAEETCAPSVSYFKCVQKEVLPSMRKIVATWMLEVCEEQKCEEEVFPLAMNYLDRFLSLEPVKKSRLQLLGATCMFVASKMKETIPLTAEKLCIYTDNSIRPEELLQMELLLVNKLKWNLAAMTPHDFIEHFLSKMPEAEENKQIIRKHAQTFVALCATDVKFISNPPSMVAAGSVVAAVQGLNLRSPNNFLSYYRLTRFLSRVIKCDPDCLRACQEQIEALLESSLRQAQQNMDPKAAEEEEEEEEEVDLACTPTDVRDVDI
Experimental: Assay for Inhibition of cdk4/Cyclin D
The cdk4 enzyme assay for IC50 determination and kinetic evaluation was performed as follows: 96-well filter plates (Millipore MADVN6550) were used. The total volume was 0.1 mL containing a final concentration of buffer A (20 mM TRIS (tris[hydroxymethyl]aminomethane) (pH 7.4), 50 mM NaCl, 1 mM dithiothreitol, 10 mM MgCl2), 25 μM ATP containing 0.25 μCi [^32P]ATP, 20 ng Cdk4, 1 μg retinoblastoma protein, and the test compound at appropriate dilutions in buffer A. Buffer A alone without added test compound was employed as a control for no inhibition. Buffer A containing excess EDTA was used to determine the level of background ^32P in the absence of enzyme activity. All components except the ATP were added to the wells, and the plate was placed on a plate mixer for 2 minutes. The reaction was started by adding [^32P]ATP, and the plate was incubated at 25° C. for 15 minutes. The reaction was terminated by addition of 0.1 mL 20% trichloroacetic acid (TCA). The plate was kept at 4° C. for at least 1 hour to allow the substrate to precipitate. The wells were then washed five times with 0.2 mL 10% TCA, and ^32P incorporation was determined with a beta plate counter (Wallac Inc., Gaithersburg, Md.).

cdk2/cyclin E = cdk2/cyclin E (Homo sapiens, UniProt P24941); assay: Assay for inhibition of cdk2 (cdk2/cyclin E), 32P filter plate; type: biochemical; conditions: retinoblastoma protein substrate, read-out: CYCK2E IC50
Experimental: as §1, §2

[2] = target: T1, mouse PDGF-β receptor tyrosine kinase (Mus musculus, UniProt P05622); assay: PDGF receptor (PDGFr) tyrosine kinase assay; type: biochemical; conditions: PDGFr enzyme lysate, Poly (4:1) glutamate-tyrosine substrate
T1 construct: amplify a fragment of DNA that codes for the intracellular tyrosine kinase domain; made in house; host or cells: SF9 insect cells (baculovirus); crude cell lysate used
T1 sequence (P05622 599-961 limits assumed): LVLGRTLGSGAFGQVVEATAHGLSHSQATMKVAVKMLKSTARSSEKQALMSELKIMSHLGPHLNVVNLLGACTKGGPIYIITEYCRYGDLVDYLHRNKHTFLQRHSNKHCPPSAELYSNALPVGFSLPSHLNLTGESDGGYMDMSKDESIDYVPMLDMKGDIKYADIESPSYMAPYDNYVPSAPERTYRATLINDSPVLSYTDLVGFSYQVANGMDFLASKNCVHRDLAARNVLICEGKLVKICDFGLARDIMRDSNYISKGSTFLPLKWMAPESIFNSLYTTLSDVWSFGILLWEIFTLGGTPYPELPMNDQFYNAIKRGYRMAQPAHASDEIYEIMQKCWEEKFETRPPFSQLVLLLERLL
Source text: (§3) For PDGF receptor (PDGFr) and FGF receptor (FGFr) tyrosine kinase assays, full-length cDNAs for the mouse PDGF-β and human FGF1(flg) receptor tyrosine kinases were obtained from J. Escobedo and prepared as described previously (Escobedo et al., J. Biol. Chem., 1988;262:1482–1487). PCR primers were designed to amplify a fragment of DNA that codes for the intracellular tyrosine kinase domain. The fragment was inserted into a baculovirus vector, cotransfected with AcMNPV DNA, and the recombinant virus was isolated. SF9 insect cells are infected with the virus to overexpress the protein, and the cell lysate was used for the assay.
(§4) PDGFr and FGFr enzyme assays were performed in 96-well plates (100 μL/incubation/well), and conditions were optimized to measure the incorporation of ^32P from [γ^32P]ATP into a glutamate-tyrosine co-polymer substrate. Briefly, to each well was added 82.5 μL incubation buffer containing 25 mM Hepes (pH 7.0), 150 mM NaCl, 0.1% Triton X-100, 0.2 mM PMSF, 0.2 mM Na3VO4, 10 mM MnCl2, and 750 μg/mL Poly (4:1) glutamate-tyrosine followed by 2.5 μL inhibitor and 5 μL enzyme lysate (7.5 μg/μL FGFr or 6.0 μg/μL PDGFr) to initiate the reaction. Following a 10-minute incubation at 25° C., […] [γ^32P]ATP (0.4 μCi plus 50 μM ATP) was added to each well, and samples were incubated for an additional 10 minutes at 25° C. The reaction was terminated by the addition of 100 μL 30% trichloroacetic acid (TCA) containing 20 mM sodium pyrophosphate and precipitation of material onto glass fiber mats (Wallac). Filters were washed three times with 15% TCA containing 100 mM sodium pyrophosphate, and the radioactivity retained on the filters was counted in a Wallac 1250 Betaplate reader. Nonspecific activity was defined as radioactivity retained on the filters following incubation of samples with buffer alone (no enzyme). Specific enzymatic activity (enzyme plus buffer) was defined as total activity minus nonspecific activity. The concentration of a compound that inhibited specific activity by 50% (IC50) was determined based on the inhibition curve.

[3] = target: T2, human FGF1(flg) receptor tyrosine kinase (Homo sapiens, UniProt P11362); assay: FGF receptor (FGFr) tyrosine kinase assay; type: biochemical; conditions: FGFr enzyme lysate, Poly (4:1) glutamate-tyrosine substrate
T2 construct: amplify a fragment of DNA that codes for the intracellular tyrosine kinase domain; made in house; host or cells: SF9 insect cells (baculovirus); crude cell lysate used
T2 sequence (P11362 478-767 limits assumed): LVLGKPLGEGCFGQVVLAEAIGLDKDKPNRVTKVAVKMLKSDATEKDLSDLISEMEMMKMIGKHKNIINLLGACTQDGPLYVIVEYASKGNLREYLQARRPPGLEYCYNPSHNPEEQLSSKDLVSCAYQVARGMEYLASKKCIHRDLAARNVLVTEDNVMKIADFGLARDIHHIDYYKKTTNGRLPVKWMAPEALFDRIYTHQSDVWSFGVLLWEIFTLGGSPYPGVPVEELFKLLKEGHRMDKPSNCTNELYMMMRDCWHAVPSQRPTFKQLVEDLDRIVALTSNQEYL
Source text: as §3, §4

neointima formation = conditions: intraluminal exposure of a denuded rat carotid artery; cited from earlier work

SMILES | HSV replication [1] | IC50 (cdk2/cyclin A) [nM] | IC50 (cdk1/cyclin B) [nM] | IC50 (cdk4/Cyclin D) [nM] | IC50 (cdk2/cyclin E) [nM] | IC50 [2] [nM] | IC50 [3] [nM] | inhibition of neointima formation (neointima formation) | selectivity for Cdk4 over cdk1, cdk2, FGF and PDGF (cdk4/Cyclin D; conclusion from Table 2)
CC[C@H](CO)Nc1nc(NCc2ccccc2)c2ncn(C(C)C)c2n1 [roscovitine] | inhibited |  |  |  |  |  |  |  | 
CC1(C)CN(c2ccc(Nc3ncc4c(n3)N(C3CCCC3)S(=O)(=O)C=C4)cc2)CCN1 [Compound 6, (1-Cyclopentyl-2,2-dioxo-1,2-dihydro-2l^6-thia-1,6,8-triaza-naphthalen-7-yl)-[4-(3,3-dimethyl-piperazin-1-yl)-phenyl]-amine] |  | 294 | 3600 | 1.3 | 600 |  |  |  | 
CC1=Cc2cnc(Nc3ccc(N4CCNCC4)cc3)nc2N(C2CCCC2)S1(=O)=O [Compound 10, (1-Cyclopentyl-3-methyl-2,2-dioxo-1,2-dihydro-2l^6-thia-1,6,8-triaza-naphthalen-7-yl)-(4-piperazin-1-yl-phenyl)-amine] |  | 5450 | 36000 | 93 | 26000 | 290 | 575 |  | 
O=S1(=O)CCc2cnc(Nc3ccc(N4CCNCC4)cc3)nc2N1C1CCCC1 [Compound 16, (1-Cyclopentyl-2,2-dioxo-1,2,3,4-tetrahydro-2l^6-thia-1,6,8-triaza-naphthalen-7-yl)-(4-piperazin-1-yl-phenyl)-amine] |  | 930 | 4140 | 45 | 930 |  |  |  | 
COc1ccc(CNc2nc(N(CCO)CCO)nc3c2ncn3C(C)C)cc1 [CVT-313] |  |  |  |  |  |  |  | greater than 80% | 
CCC1=Cc2cnc(Nc3ccc(N4CCNCC4)cc3)nc2N(C2CCCC2)S1(=O)=O [Compound 14, (1-Cyclopentyl-3-ethyl-2,2-dioxo-1,2-dihydro-2l^6-thia-1,6,8-triaza-naphthalen-7-yl)-(4-piperazin-1-yl-phenyl)-amine] |  | 4000 |  | 50 | > 5000 | 216 | 1030 |  | 
O=S1(=O)C=Cc2cnc(Nc3ccc(N4CCNCC4)cc3)nc2N1C1CCCC1 [Compound 4, (1-Cyclopentyl-2,2-dioxo-1,2-dihydro-2l^6-thia-1,6,8-triaza-naphthalen-7-yl)-(4-piperazin-1-yl-phenyl)-amine] |  | 106 | 360 | 5 | 145 | 1070 | 179 |  | specifically inhibits Cdk4
